In patent US20090156638A1, “Uses of nordihydroguaiaretic acid (NDGA) and derivatives thereof in preventing transmission of sexually transmitted diseases” (priority 2007, published 2009):

How the values were obtained:
[1] = 14-day toxicity study in rats, toxicokinetics; assay type: in vivo; settings: for Tmax / Cmax: rat, plasma; for Tmax: 500 mg/kg; for Cmax: Group 10 (500 mg/kg), Day 14
Experimental: The toxicokinetics study consisted of four dose-groups (0, 50, 100, 500 mg/kg) with 6 animals/sex/group. Approximately 0.7 mL of blood was collected from the jugular vein from 3 rats/sex/group rotated in ascending order for each dose group at 0.5, 1, 4, 8, and 12 hours post-dose on Days 1, 7, and 14. Plasma was isolated and analyzed for M4N by HPLC assay.

[2] = in vivo, 45 mg/kg; cited from earlier work
HPV 16 = test: HPV inhibition in C33A cells; assay type: cell-based; settings: C-33-A, read-out: Inhibitory Concentration (IC50 or EC50)
HSV-2 = test: Mouse vaginal model of HSV-2 infection; assay type: in vivo, CF-1 mice; settings: 20 mg/ml in Vaseline
Experimental: The efficacies of […] (FIG. 8A) and […] (FIG. 8A) against HSV-2 in a mouse vaginal model system have also been examined. […] At the end of three days, the vaginal lavages were collected from the washings of the vagina regions. The status of the vaginal HSV-2 infection and replication were examined by their cytopathic effects on cultured human foreskin fibroblast cells. Monitoring and scoring were carried out by three persons independently.

[3] = mouse, in vivo
[4] = Human safety, tolerability and pharmacokinetic study of M4N vaginal ointment
HSV-1 [5] = tested on: HSV-1
Experimental: The dorsal cutaneous guinea pig model system is a well-established model for HSV-1 infection.
In FIGS. 6A-6D, for topical treatment with M4N sections of shaved and depilated dorsal guinea pig skin were infected equally were infected with HSV-1.
McKrae strain). […] Treatments were administered twice daily and photogragphs were taken at day 6 post-infection. […] Regions 1 and 4 were infected with high levels of HSV-1 (1×10^8 pfu/mL), regions 2 and 5 were infected with moderate levels of HSV-1 (1×10^6 pfu/mL) and regions 3 and 6 were infected with low levels of HSV-1 (1×10^4 pfu/mL).

[6] = Stability of M4N ointment formulation; assay type: physicochemical; settings: 2% wt/wt ointment in white petrolatum, 5 mL containers
Excerpt: Two dosing schemes were used.

HIV-1 = test: microbe, parasite or virus in culture; settings: Human immunodeficiency virus 1, IIIB, COS, read-out: Inhibitory Concentration (IC50 or EC50)
HSV-1 [7] = test: Mutation-insensitivity: IC50 against HSV-1 over ten virus passages; assay type: cell-based
Excerpt: In contrast, host factors, unlike viral factors, are under no selective pressure to mutate and are in general structurally invariable. […] Table 1 compares the IC50 of M4N and acyclovir for ten passages.

[8] = Single dose s.c. rabbit irritation study
Experimental: 4 male and 2 female New Zealand White rabbits received single s.c. injections of saline (1 mL), DMSO (1 mL), 20 mg (0.1 mL) M4N, and 200 mg (1 mL) M4N at each of four sites. Mortality, clinical observations, body weights, dermal irritation, gross necropsy findings, and microscopic pathology were evaluated. […] All injection sites were preserved in 10% neutral-buffered formalin (NBF).

ICP4 gene of HSV = test: Inhibition of HSV ICP4 gene transcription; assay type: cell-based, HSV-1; settings: previously determined
Excerpt: (§1) The […] (IE) ICP4 gene of HSV is essential for HSV replication.

[9] = Fourteen day rabbit intravaginal irritation study
[10] = tested on: Sp1 regulated transcription of HPV E6/E7; test: Sp1 regulated HPV E6/E7 transcription, luciferase assays and C3 tumor lines; assay type: cell-based; settings: luciferase assays and HPV induced mouse cervical C3 tumor lines
Excerpt: as §1

[11] = tested on: acyclovir-resistant strains of HSV-1 (HSV-1^R); settings: Chen et al., FIG. 3; cited from earlier work
[12] = 14-day toxicity study in dogs, toxicokinetics; assay type: in vivo, beagle dogs; settings: for highest mean plasma concentration: Day 14; for Tmax: read-out: median Tmax
Experimental: Three beagle dogs/sex/group received doses of 0 (0.50 mL/kg DMSO), 10, 50, and 100 mg/kg (0.05, 0.25, 0.5 mL/kg) M4N. Approximately 4 mL of blood was collected from the jugular vein at each sampling time point of 0.5, 1, 4, 8, and 12 hours after dosing on Days 1, 7, and 14. Three dogs/sex/group were rotated in ascending order for each dose group. Plasma was isolated and analyzed for M4N by HPLC assay.

[13] = all samples, Days 1 and 7, LOQ 0.4000
[14] = fourteen women, M4N ointment/placebo crossover
[15] = rabbit vaginal irritation study

COc1ccc(C[C@@H](C)[C@@H](C)Cc2ccc(OC)c(OC)c2)cc1OC [M4N, tetra-O-methyl-nordihydroguaiaretic acid]
AUClast, females relative to males ([1]; Group 10, Day 14): ~4 times | plasma concentrations ([1]; Groups 8 and 9, Day 14, LOQ 0.4000): < 0.4000 µg/mL | plasma concentrations [1, 13]: < 0.4000 µg/mL | Tmax ([1]; female, females, Group 10, Day 14): 4 h | Cmax ([1]; female, females): 0.537 µg/mL | Tlast ([1]; females): 12 h | Tmax ([1]; male, males, Group 10, Day 14): 0.5 h | Cmax ([1]; male, males): 0.333 µg/mL | Tlast ([1]; males): 8 h | tolerability on intravenous administration [2]: generally good tolerability | IC50 (HPV 16): 30 µM | infection in the other 4 mice (HSV-2): very little infection | mice fully infected, out of 8 mice (HSV-2): 4 | score of the fully infected mice (HSV-2): 34 | toxicity [3]: no toxicity | tolerability ([4]; 90 mg (2% wt/wt) intravaginally once per day for 7 days, healthy women): well tolerated | detection in serum pharmacokinetic samples ([4]; days 1 and 7, 1, 2, 4, 6 hours after dosing, lower limit of detection 1 ng/mL): no detection of M4N | abdominal pain reported [4, 14]: 1 subjects | groin pain reported [4, 14]: 1 subjects | headaches reported [4, 14]: 3 subjects | tooth abscess reported [4, 14]: 1 subjects | upper respiratory tract infection reported [4, 14]: 2 subjects | application site irritation reported ([4]; might have been caused by the M4N ointment): 1 subjects | efficacy by time of first treatment after infection (HSV-1 [5]; 170 μM, first treated 10 min, 24 h, 48 h, 72 h after infection): better efficacy when treatment commenced shortly, within 24, after infection | inhibition of HSV-1 induced cutaneous lesion formation and viral shedding (HSV-1 [5]; topical application, guinea pig): effectively inhibited HSV-1 induced cutaneous lesion formation and viral shedding | toxicity or dermal irritation (HSV-1 [5]; topical, even at the highest soluble concentrations (150 mM)): no evidence of toxicity or dermal irritation | time remained stable at room temperature [6]: 6 months | IC50 (HIV-1): 11 µM | IC50 (HSV-1 [7]; Human alphaherpesvirus 1, HSV-1 passage 1): 11.7 µM | IC50 (HSV-1 [7]; Human alphaherpesvirus 1, HSV-1 passage 2): 4.4 µM | IC50 (HSV-1 [7]; Human alphaherpesvirus 1, HSV-1 passage 3): 8.24 µM | IC50 (HSV-1 [7]; Human alphaherpesvirus 1, HSV-1 passage 4): 5.97 µM | IC50 (HSV-1 [7]; Human alphaherpesvirus 1, HSV-1 passage 5): 6.48 µM | IC50 (HSV-1 [7]; Human alphaherpesvirus 1, HSV-1 passage 6): 6.98 µM | IC50 (HSV-1 [7]; Human alphaherpesvirus 1, HSV-1 passage 7): 6.98 µM | IC50 (HSV-1 [7]; Human alphaherpesvirus 1, HSV-1 passage 8): 9.91 µM | IC50 (HSV-1 [7]; Human alphaherpesvirus 1, HSV-1 passage 9): 8.82 µM | IC50 (HSV-1 [7]; Human alphaherpesvirus 1, HSV-1 passage 10): 4.77 µM | change in IC50 against HSV-1 (HSV-1 [7]; following ten passages of virus): no increase in the IC50 | histopathology of injection sites compared to DMSO vehicle sites ([8]; rabbit, in vivo, sc): slight increase in the intensity of reactions | effect on body weight or mortality ([8]; single s.c. injection, any dose group): No treatment-related effect | inhibition of ICP4 gene transcription (ICP4 gene of HSV): effectively inhibit ICP4 gene transcription | early deaths ([9]; 2% w/w intravaginal, 1 mL once daily for 14 days): no early deaths | gross pathology (enlarged liver, irregularly shaped femur, rabbit 32092) ([9]; Group 2): incidental findings and not test article related | hematology vs controls ([9]; Study Day 15, Group 2 (2% w/w), attributed to individual animal variation): statistically significant lower absolute basophil count | clinical chemistry vs controls ([9]; Study Day 15, Group 2, attributed to individual animal variation): statistically significant lower ALT | cumulation after day 14 dosing ([9]; female rabbits, topical per vaginam): no resultant evidence of cumulation | blood concentrations seen ([9]; female rabbits, topical per vaginam, 4 hours post first dose and day 14): ≤ 0.01 µg/mL | start of absorption into the blood [9, 15]: 30 min | time of peak absorption into the blood [9, 15]: 4 h | effect on measured clinical pathology parameters ([9]; repeated intravaginal administration for 14 days): no apparent test article-related effect | reduction of Sp1 regulated transcription of HPV E6/E7 [10]: dramatically reduces Sp1 regulated transcription of HPV E6/E7 | efficacy against acyclovir-resistant strains of HSV-1 [11]: retains complete efficacy | highest mean plasma concentration ([12]; Group 3 (50 mg/kg)): 1.004 µg/mL | AUClast, males relative to females ([12]; Group 3, Day 14): approximately 3 times | Tlast ([12]; Group 3 females): 4 h | highest mean plasma concentration ([12]; Group 4 (100 mg/kg)): 1.096 µg/mL | AUClast, males relative to females ([12]; Group 4, Day 14): ~2 times | plasma concentrations [12, 13]: < 0.4000 µg/mL | concentration at 14 day ([12]; both sexes, beagle, dog, plasma, Group 2 (10 mg/kg), Day 14, read-out: plasma concentration, only sample greater than LOQ): 0.471 µg/mL | Tmax ([12]; both sexes, beagle, dog, plasma, Groups 3 and 4 except Group 3 males): 4 h | Cmax ([12]; both sexes, beagle, dog, plasma, all groups): 1 µg/mL | median Tlast ([12]; except Group 3 females): 12 h | Tmax ([12]; male, beagle, dog, plasma, 50 mg/kg, Group 3 males): 8 h
